Experimental data reported in patent US20040076974A1, “Liver necrosis predictive genes” (priority 2002, published 2004).
“And” between values parts separate entries of the source, which are not always exact repeats. Equal entries are not always repeated. Where two headings read alike, the source gives them in different places.

Columns and labels:
Sprague Dawley rats = tested on: Sprague Dawley rats
Method in brief: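 Toxicity calls (necrosis present or absent at 72 h) and histopathology scores were correlated with tissue gene expression from Crl:CD Sprague Dawley rats. Animals, usually 3 treated with compound by i.p. route and 3 given vehicle, were killed at 6, 24 or 72 h and tissues frozen immediately in liquid nitrogen.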

[1] = tested on: toxicologically relevant rat genes (rat CT array)
[2] = 24 h, treatment/control, dose 2, listed as CHEX

## C[C@@H]1C[C@@H]([C@H](O)CC2CC(=O)NC(=O)C2)C(=O)[C@@H](C)C1 [cycloheximide]
Sprague Dawley rats; 72 h, dose 0.5
  Liver Toxicity Necrosis Classification: no
Sprague Dawley rats; 72 h; dose 2; animals 2257-2259
  Liver Toxicity Necrosis Classification: no
Sprague Dawley rats; compound-dose group CHEX 0.5; at 72 h
  Liver Toxicity Necrosis Classification: no
Sprague Dawley rats; compound-dose group CHEX 2; at 72 h
  Liver Toxicity Necrosis Classification: no
Sprague Dawley rats; compound-dose group at 72 h, dose 0.5
  Liver Toxicity Necrosis Classification: no
Sprague Dawley rats; compound-dose group at 72 h, dose 2
  Liver Toxicity Necrosis Classification: no
Sprague Dawley rats; compound-dose group at 72 h; dose 2
  Liver Toxicity Necrosis Classification: no
Sprague Dawley rats; rat, intraperitoneal, dose 0.5 mg/kg, 72 hours after treatment
  Liver Necrosis: no
Sprague Dawley rats; rat, intraperitoneal, dose 0.5 mg/kg, 72 hours; 1 = not remarkable, 2 and higher increasing severity
  Score (histopathology liver necrosis severity score): 1
Sprague Dawley rats; rat, intraperitoneal, dose 2 mg/kg, 72 hours after treatment
  Liver Necrosis: no
Sprague Dawley rats; rat, intraperitoneal, dose 2 mg/kg, 72 hours; 1 = not remarkable, 2 and higher increasing severity
  Score (histopathology liver necrosis severity score): 1
[1]; 24 h
  Aflatoxin B1 aldehyde reductase expression: 0.3081 and 0.5569
[1]; [2]
  3-hydroxyisobutyrate dehydrogenase expression: 0.7822 and 0.6854
  14-3-3 zeta expression: 1.308 and 1.217
  17-beta hydroxysteroid dehydrogenase, type 2 expression: 0.8086 and 0.8289
  60S ribosomal protein L6 expression: 4.046 and 3.164
  ATPase inhibitor (rat mitochondrial IF1 protein) expression: 1.104
  Alpha 1 - inhibitor III expression: 0.1985 and 0.3033
  Alpha-2-macroglobulin expression: 8.537 and 10.8864
  Bax (alpha) expression: 3.909 and 3.079
  Beta-actin expression: 1.582
  Calpactin I heavy chain expression: 1.21 and 1.278
  Carbamyl phosphate synthetase I expression: 2.339 and 1.425
  Carbonic anhydrase III expression: 0.09817 and 0.117
  Cathepsin L, sequence 2 expression: 3.293 and 1.752
  Dynamin-1 (D100) expression: 0.7964 and 0.6968
  Epidermal growth factor expression: 0.7851 and 0.8391
  Equilbrative nitrobenzylthioinosine-sensitive nucleoside transporter expression: 0.434 and 0.4974
  Fas antigen expression: 1.655 and 1.544
  Gadd45 expression: 1.068 and 0.9225
  Gadd153 expression: 2.348 and 2.179
  Gamma-actin, cytoplasmic expression: 2.831 and 2.8
  Glucose-regulated protein 78 expression: 1.943
  Hepatic lipase expression: 0.425 and 0.4085
  ID-1 expression: 1.831 and 1.476
  Insulin-like growth factor I expression: 0.632 and 0.7238
  Insulin-like growth factor binding protein 1 expression: 1.891
  Insulin-like growth factor binding protein 3 expression: 0.6015 and 0.8706
  Integrin beta1 expression: 1.973 and 1.549
  L-gulono-gamma-lactone oxidase expression: 0.1815 and 0.3251
  Matrin F/G expression: 0.6684 and 0.8266
  Monocyte chemotactic protein receptor (CCR2) expression: 1.356
  Organic anion transporter 3 expression: 0.6196 and 0.8226
  Organic cation transporter 3 expression: 3.288 and 2.799
  Ornithine decarboxylase expression: 1.809 and 2.529
  PAR interacting protein expression: 2.494 and 1.775
  Phase-1 RCT 252 expression: 2.109
  Phase-1 RCT-15 expression: 2.098
  Phase-1 RCT-36 expression: 0.9535
  Phase-1 RCT-38 expression: 0.8074 and 1.436
  Phase-1 RCT-40 expression: 0.5868 and 0.6253
  Phase-1 RCT-48 expression: 0.8259
  Phase-1 RCT-50 expression: 3.394 and 1.867
  Phase-1 RCT-78 expression: 0.6678 and 0.6463
  Phase-1 RCT-83 expression: 0.7709 and 0.5883
  Phase-1 RCT-88 expression: 0.5622 and 0.699
  Phase-1 RCT-89 expression: 0.3912 and 0.666
  Phase-1 RCT-92 expression: 0.5483 and 0.6236
  Phase-1 RCT-102 expression: 0.1629 and 0.3219
  Phase-1 RCT-117 expression: 0.5435 and 0.8114
  Phase-1 RCT-128 expression: 0.7358 and 0.5601
  Phase-1 RCT-137 expression: 0.897
  Phase-1 RCT-144 expression: 1.698 and 1.552
  Phase-1 RCT-145 expression: 1.962 and 1.531
  Phase-1 RCT-152 expression: 3.068 and 2.149
  Phase-1 RCT-179 expression: 1.874 and 1.726
  Phase-1 RCT-180 expression: 1.992 and 1.731
  Phase-1 RCT-182 expression: 0.648 and 0.4739
  Phase-1 RCT-189 expression: 0.7556 and 0.7413
  Phase-1 RCT-207 expression: 3.54 and 2.206
  Phase-1 RCT-213 expression: 2.298 and 1.558
  Phase-1 RCT-241 expression: 2.805 and 1.626
  Phase-1 RCT-256 expression: 0.7478
  Phase-1 RCT-264 expression: 0.3258 and 0.288
  Phase-1 RCT-270 expression: 0.3824 and 0.3779
  Phase-1 RCT-271 expression: 0.6863 and 0.7351
  Phase-1 RCT-288 expression: 0.7066 and 0.6813
  Phase-1 RCT-291 expression: 0.9117
  Phase-1 RCT-295 expression: 1.809 and 1.772
  Phase-1 RCT-296 expression: 0.1325 and 0.1028
  Ribosomal protein L13A expression: 3.222 and 2.597
  Ribosomal protein S17 expression: 3.701 and 3.311
  Sodium/bile acid cotransporter expression: 0.2803 and 0.3733
  Transthyretin expression: 0.3341 and 0.2879
  Ubiquitin conjugating enzyme (RAD 6 homologue) expression: 1.788 and 1.624
  c-jun expression: 1.591 and 1.111
  c-myc expression: 1.683 and 1.143
[1]; rat, in vivo
  Paraoxonase 1 expression: 0.4607 and 0.4822
